# Results published in US20220323554A1, “POLYSACCHARIDE-PEPTIDE COMPLEX FOR LOWERING BLOOD SUGAR, BLOOD LIPID AND GLYCOSYLATED HEMOGLOBIN LEVELS, AND PREPARATION METHOD” (CHINA YUNHONG HOLDINGS CO., LTD., priority 2019, published 2022).
# Counter-ions that a name gives are not always drawn.
# Key:
# diabetic rat model = assay: Evaluation tests for lowering glycated hemoglobin (HbA1c) and blood lipid in diabetic rats (high-lipid emulsion + streptozotocin); assay type: in vivo, Sprague-Dawley (SD) rats; settings: positive control group, metformin hydrochloride solution, intragastric once per day for 8 weeks
# Procedure: Evaluation tests for lowering glycated hemoglobin (HbA1c) were described below.
# Healthy male Sprague-Dawley (SD) rats with a body weight of 185-225 g were selected and fed adaptively for one week. After adaptive feeding, the SD rats were randomly divided into six groups each for 20 rats. One of the six groups was selected as a blank control group, and fed with ordinary feed. The rest five groups were subjected to intragastric administration with high-lipid emulsion for 10 mL/kg per day for 1 month. After the last feeding, rats were fasted for 12 h expect for water. The rats fed with high-lipid emulsion were subjected to disposable intraperitoneal injection with streptozotocin STZ solution for 25 mg/kg to establish a diabetic rat model. After streptozotocin injection for 72 h, the rats were fasted for 12 h expect for water and was taken blood samples from the tail to detect fasting blood sugar. The rat with a fasting blood glucose>10.0 mmol/L was considered as a successful model. The blank control group was intraperitoneally injected with citric acid-sodium citrate buffer solution.
# The rats that were successfully modeled were randomly divided into model group, positive control group, low-dose group, medium-dose group and high-dose group according to blood sugar and body weight, with 20 rats in each group. […]
# diabetic animal model = assay: Evaluation tests for lowering blood sugar (urine sugar, fasting blood sugar) in streptozotocin rats; assay type: in vivo; settings: positive control group, metformin hydrochloride solution, intragastric once per day for 15 days
# Procedure: Evaluation tests for lowering blood sugar were described below.
# 100 of healthy male rats were selected, numbered and fed adaptively in normal environment for 2 weeks, and free to eat and drink.
# After adaptive feeding, the rats were randomly divided into 5 groups with 20 rats in each group. Only one group was selected as the blank control group, the rest groups were subjected to disposable intraperitoneal injection with 5% streptozotocin STZ solution for 200 mg/kg. If there were coma among those rats within 2 h, glucose sugar solution was fed until awake. Two days later, the fasting blood sugar was detected. The rat with a blood sugar of more than 10 was selected as a diabetic animal model.
# The rats that were successfully modeled were randomly divided into model group, positive control group, low-dose group, medium-dose group and high-dose group according to blood sugar and body weight, with 20 rats in each group. The polysaccharide-peptide composites prepared in Examples 1-3 were diluted with water into intragastric solutions, which were fed to the low-dose group for 1.0 g/kg, the medium-dose group for 2.0 g/kg and the high-dose group for 3.0 g/kg, respectively. […]
# During the experiment, rats of each group were […] every day for 15 consecutive days. […] At the end of the experiment, the final blood sugar content was recorded.
# high-lipid model rats = assay: Evaluation tests for lowering blood lipid (TC, TG) in rats given high lipid diet; assay type: in vivo; settings: positive control group, simvastatin solution 50 mg/kg bw d, intragastric
# Text: Evaluation tests for lowering blood lipid were described below. 60 of healthy male rats were selected, numbered and fed adaptively in normal environment for 2 weeks, and free to eat and drink. After the adaptive feeding, the rats were randomly divided into 6 groups with 10 rats in each group, consisting of a blank control group, a high-lipid model group, a positive treatment group, a high-dose group, a medium-dose group and a low-dose group. Except the blank control group, the other groups were given high lipid diet. The polysaccharide-peptide composites prepared in this application and simvastatin were respectively diluted. The positive control group was given simvastatin solution by intragastric administration for 50 mg/kg bw d, and the high, medium and low-dose groups were given polysaccharide-peptide solutions for 100 mg/kg bw d, 50 mg/kg bw d and 25 mg/kg bw d, respectively. Other groups were intragastric with corresponding volume of distilled water. The treatment period lasted for 4 weeks.
Structure (SMILES),Content of blood lipid (diabetic rat model; model group 3.29 ± 0.58) [mmol/L],Content of HbA1c (diabetic rat model; model group 50.78 ± 3.76) [ng/mL],Content of urine sugar (diabetic animal model; model group 1.74 ± 0.56) [mmol/L],Content of fasting blood sugar (diabetic animal model; model group 14.86 ± 2.38) [mmol/L],Content of TG (high-lipid model rats; model group 0.57 ± 0.18) [mmol/L],Content of TC (high-lipid model rats; model group 3.41 ± 0.58) [mmol/L]
CN(C)C(=N)N=C(N)N [metformin hydrochloride],2.52 ± 0.24,35.14 ± 1.25,1.44 ± 0.23,8.55 ± 1.37,,
CCC(C)(C)C(=O)O[C@H]1C[C@@H](C)C=C2C=C[C@H](C)[C@H](CC[C@@H]3C[C@@H](O)CC(=O)O3)[C@H]21 [simvastatin],,,,,0.32 ± 0.14,2.59 ± 0.24
